Holding throughout (type): cell-based
The test system of test [1] is human naïve CD4 T cells. Description: BCL6 intranuclear expression by FACS on in vitro differentiated cells. Particulars: for induction of Bcl6+CXCR5+ cells: titration with or without IL-12 (FIG. 11). How it is done:
(§1) For surface staining, primary-staining panels used for phenotypic analysis or for cell sorting known in the art were used. For the intranuclear staining: cells were treated with the FoxP3 Fixation/Permeabilization kit (eBioscience) and stained in Permeabilization buffer (eBioscience). For cytokine staining: day 3 or day 5 in vitro differentiated cells (specified in the main text or in figure legends) cells were stimulated for 5 hours at 37° C. with Phorbol 12-myristate 13-acetate (PMA, 25 ng/ml) and Ionomycin (1 μg/ml) in the presence of Brefeldin A (5 μg/ml). Cells were fixed with PBS 2% FBS, 1% PFA and permeabilized with PBS 2% FBS, 0.5% Saponin (from quillaja bark, Sigma-Aldrich). Samples were analyzed on a LSR Fortessa Cell Analyzer (BD, Bioscience). Flow cytometry data were analyzed with FlowJo (Tree Star). For cell sorting, cells were sorted using sorted using a FACS Aria (BD, Bioscience).
(§2) Unless differently specified, naïve CD4^+ T cells were enriched from PBMCs by magnetic bead negative selection with the Naïve CD4^+ T Cell Isolation Kit (Stem Cell Technologies). Purity (CD4^+CD45RA^+) was 90% or higher. Cells (7.5×10^4 cells/well) were activated by Dynabeads Human T-Activator CD3/CD28 (2 μl/well, Life Technologies) and cultured with recombinant human/mouse/rat activin A (50 ng/ml or 100 ng/ml), recombinant human IL-12 (5 ng/ml), recombinant human TGFβ (1 ng/ml), recombinant human IL-23 (10 ng/ml) or recombinant human IL-35 (10 ng/ml) in the presence of and recombinant human IL-7 (4 ng/ml) in AIM-V medium (Life Technologies). All cytokines were from R&D System and Peprotech. The 14 kDa mature human beta A chain of human activin A shares 100% amino acid sequence identity with bovine, feline, mouse, porcine, and rat beta A. Phenotype was quantified after 3 or 5 days, as specified in the main text of Figure legends. Similar results were obtained when using Treg-depleted FACS sorted naïve CD4 T cells, in which cells were sorted from total PBMCs by flow cytometry as CD19^−CD8^−CD14^−CD16^− CD4^+CD45RO^−CD25^− cells. For experiments quantifying supernatant CXCL13 concentration, cells were activated by plate-bound anti-human CD3 (5 μg/ml, BD) and ICOS-L (5 μg/ml, recombinant human B7-H2, R&D). CXCL13 concentrations were determined via human CXCL13 DuoSet ELISA (R&D) on supernatants harvested after 5 days of in vitro culture. For blocking experiments, cells were cultured with anti-activin A blocking mAb (5 μg/ml, clone 69403, R&D), anti-TGFβ mAb (100 μg/ml, clone 1D11.16.8, BioXcell), or equivalent concentration of mouse IgG1 isotype mAb (BioXcell). For blockade of IL-2, cells were cultured with anti-IL-2 blocking mAb (10 μg/ml, clone 5334, R&D) or mouse IgG1 isotype mAb (BioXcell).
(A flow cytometer gives signals particle by particle.)

The subject of test [2] is human naïve CD4 T cells. The test is described as follows: Screening of secretomics recombinant proteins for Tfh marker induction. Particulars: secretomics protein screen, anti-CD3/CD28 beads, 5 days, automated FACS. Here is the method: FIG. 1A-D: Inhibin beta A (INHBA) emerged from the screen as potent regulator of human Tfh differentiation. (A) Schematic of primary screen. Purified human naïve CD4 T cells from a leukapheresis donor were stimulated by anti-CD3/CD28 beads on 384 well plates on day 0. The GNF secretomics recombinant proteins were added at the beginning of the stimulation. Each secretomics protein was tested in duplicate. After 5 days of in vitro culture, cells were evaluated by automated FACS analysis for the expression of Tfh signature markers, including CXCR5 and PD-1. (B) Primary screen results. Relative enrichment of PD-1^+CXCR5^+ cell induction is reported as Z score for each recombinant protein. INHBA gene product is shown in red. (C) CXCR5 and PD-1 expression from repeat experiment in which INHBA gene product was tested again for its capacity to induce Tfh-like differentiation. (D) Confocal microscopy of INHBA expression in human tonsils. Tonsil sections were stained with anti-INHBA (red) anti-BCL6 (blue) and anti-CD3 (green) Abs. An overlay from one donor representative of six is shown on the left panel. […]
Naïve CD4^+ T cells were isolated from leukapheresis-derived mononuclear cells via CliniMACS negative selection (Miltenyi Biotec). […] Induction of CXCR5 and PD-1 was assessed after 5 days of in vitro culture using automated FACS acquisition via HTS on LSR Fortessa (BD Biosciences). For each 384 well plate, mean and standard deviation of PD-1^+CXCR5^+ cell frequency induced by each individual recombinant proteins was determined and used to calculate the Z score. Z scores of replicate plates were analyzed independently.
To discover novel regulators of human Tfh cell differentiation, we performed an unbiased high throughput screen of a human extracellular proteome library consisting of over 2000 human proteins predicted or known to be cytokines, chemokines, morphogens, costimulatory receptors, or single pass transmembrane molecules^19. […] Following 5 days, expression of the Tfh signature markers CXCR5 and PD-1 were measured on the cells by flow cytometry, in an automated fashion. […]

Test [3] relates to human naïve CD4 T cells. Description: CCR7 expression by FACS on in vitro differentiated cells. The conditions noted are these: for CCR7 downregulation (CCR7+CXCR5+ cells): with or without IL-12 (FIG. 10); for CCR7 expression (MFI): activated CD4 T cells, day 5. How it is done:
as §1, §2

Test [4] concerns human naïve CD4 T cells. The test is described as follows: FoxP3 induction by FACS in in vitro differentiated cells. The conditions noted are these: for FoxP3 expression (FoxP3+ cells): with or without IL-12, day 5. Here is the method:
as §1
Unless differently specified, naïve CD4^+ T cells were enriched from PBMCs by magnetic bead negative selection with the Naïve CD4^+ T Cell Isolation Kit (Stem Cell Technologies). Purity (CD4^+CD45RA^+) was 90% or higher. […] The 14 kDa mature human beta A chain of human activin A shares 100% amino acid sequence identity with bovine, feline, mouse, porcine, and rat beta A. Phenotype was quantified after 3 or 5 days, as specified in the main text of Figure legends. […] For experiments quantifying supernatant CXCL13 concentration, cells were activated by plate-bound anti-human CD3 (5 μg/ml, BD) and ICOS-L (5 μg/ml, recombinant human B7-H2, R&D). CXCL13 concentrations were determined via human CXCL13 DuoSet ELISA (R&D) on supernatants harvested after 5 days of in vitro culture. […]

Entries after “also recorded” stand apart in the source; their conditions may differ.

Consider two substances from patent US20180111991A1, “MODULATORS OF ACTIVIN AND METHODS FOR MODULATING IMMUNE RESPONSES AND T FOLLICULAR HELPER CELLS” (LA JOLLA INSTITUTE FOR ALLERGY AND IMMUNOLOGY, priority 2014, published 2018).

For TGFβ, in the test with human naïve CD4 T cells [1], the “induction of Bcl6+CXCR5+ cells” value is recorded as “No detectable induction of Bcl6”. For the same substance, the “induction of CXCR5 and PD-1 expression (PD-1+CXCR5+ cells)” value in the test with human naïve CD4 T cells [2] is reported as “regulator T cell differentiation”. For the same substance, the “CCR7 downregulation (CCR7+CXCR5+ cells)” value in the test with human naïve CD4 T cells [3] was “influence CCR7 downregulation”. In addition, the “FoxP3 expression (FoxP3+ cells)” value with human naïve CD4 T cells [4] is “induce high FoxP3 expression; also recorded: preferentially induces FoxP3”.

With “activin A: commercial recombinant cytokine, homodimer of the INHBA gene product (inhibin beta A)”, the Bcl6 protein expression entry in the test with human naïve CD4 T cells [1] (activin A with or without IL-12, FACS intranuclear staining (FIG. 8C)) is given as “significant expression of Bcl6, particularly when combined with IL-12”. Moreover, in the test with human naïve CD4 T cells [1] (activin A+IL-12, day 5 (FIG. 2F)), the BCL6 expression entry is recorded as “a fraction of CD4 T cells differentiated with activin A+IL-12 increased expression of BCL6”. Further, in the test with human naïve CD4 T cells [1], the “induction of Bcl6+CXCR5+ cells” value is reported as “No detectable induction of Bcl6”. Further, the “induction of CXCR5 and PD-1 expression (PD-1+CXCR5+ cells)” value in the test on human naïve CD4 T cells [2] was “potent regulator of the human Tfh gene program; also recorded: top hit in the screen”. For the same substance, in the test with human naïve CD4 T cells [3], the “CCR7 expression (MFI)” value was “decreased CCR7 expression” and the “CCR7 downregulation (CCR7+CXCR5+ cells)” value is recorded as “influence CCR7 downregulation”. In addition, the “CCR7 expression (MFI)” value in the test on human naïve CD4 T cells [3] (listed as Activin A) is on record as “sufficient to decrease CCR7 expression”. Besides, the “FoxP3 upregulation (FoxP3+CXCR5+ cells)” value in the test with human naïve CD4 T cells [4] (activin A with recombinant TGFβ) is given as “synergize in inducing FoxP3 upregulation”. Moreover, the “FoxP3 expression (FoxP3+ cells)” value with human naïve CD4 T cells [4] was “but not activin A was found to induce high FoxP3 expression; also recorded: less potent than TGFβ in driving the generation of FoxP3^+ cells; also recorded: induced less FoxP3 expression”.
